Results on 26 compounds are retold here after ChEMBL document CHEMBL1144944, “Discovery of an orally efficacious inhibitor of coagulation factor Xa which incorporates a neutral P1 ligand” (J Med Chem, 2003).

One data set deals with Coagulation factor X (Homo sapiens, UniProt P00742). The data set can be described thus: In vitro binding affinity for human Coagulation factor X.
Data set [1] is described as follows: Maximum plasma concentration after peroral administration (10 mpk) was determined in dog. The format is ADME, organism-based, Canis lupus familiaris. Further details: route oral. As to conditions: po, 10 mg/kg.
A short description of data set [2]: Half life period after peroral administration (10 mpk) was determined in dog. Type of data set: ADME, organism-based, Canis lupus familiaris. As to conditions: in vivo, po, 10 mg/kg.
Data set [3] is described as follows: Oral bioavailability in dog (dose 10 mg/kg). The format is ADME, organism-based, Canis lupus familiaris. As to conditions: in vivo.
The next data set deals with Prothrombin (Homo sapiens, UniProt P00734). The data set can be described thus: Binding affinity towards thrombin.
Data set [4] is described as follows: Ionization constant was determined for the compound. Type of data set: physicochemical.
The next data set addresses Serine protease 1 (Homo sapiens, UniProt P07477). Description: Binding affinity towards trypsin.
The next data set relates to Caco-2. The data set can be described thus: Compound was tested in vitro for its percent absorption towards CaCo-2 cell monolayer. The format is functional, cell-based. As to conditions: Homo sapiens.
For a further data set, the species on record is Homo sapiens. The data set can be described thus: Concentration of inhibitor required to double the activated partial thromboplastin time in human was determined. The format is functional, organism-based.
Data set [5] in a line: Ionization constant is the negative logarithm of the equilibrium coefficient of the neutral and charged forms of the compound. Type of data set: physicochemical.
For the next data set, the species on record is Canis familiaris. The data set can be described thus: Concentration of inhibitor required to double the activated partial thromboplastin time in dog was determined. Type of data set: functional, organism-based. To be noted: Canis lupus familiaris.
Data set [6] can be described thus: Maximum plasma concentration after peroral administration (5 mpk) was determined in dog. To be noted: po, 5 mg/kg. Details: route oral. Type of data set: ADME, organism-based, Canis lupus familiaris.
A short description of data set [7]: Percent oral bioavailability after peroral administration (5 mpk) was determined in dog. Type of data set: ADME, organism-based, Canis lupus familiaris. To be noted: in vivo, 5 mg/kg.
Data set [8] is described as follows: Half life period after peroral administration (5 mpk) was determined in dog. The format is ADME, organism-based, Canis lupus familiaris. As to conditions: in vivo, po, 5 mg/kg.

A value given as a limit tells only on which side of the number the result lay.

In general, Ki refers to a dissociation constant, usually derived from enzyme kinetics or from competition with a known ligand. What is called Cmax is the highest concentration seen after dosing. Broadly, the half-life is the time in which the quantity being followed falls by half. High values mean slow decline, low ones rapid decline. The bioavailability is the share of a dose that reaches the circulation, judged against a reference dose that is usually intravenous. Read a low bioavailability as poor availability. As a reminder, the pKa is the pH at which an ionisable group is half protonated. A low value points to a stronger acid or weaker base.

Chain of Coagulation factor X (P00742 41-179 limits assumed): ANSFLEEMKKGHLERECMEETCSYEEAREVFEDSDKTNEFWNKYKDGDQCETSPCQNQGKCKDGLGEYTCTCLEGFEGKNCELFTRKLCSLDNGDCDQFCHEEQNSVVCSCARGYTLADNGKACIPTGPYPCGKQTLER
Chain of Coagulation factor X (P00742 235-488 limits assumed): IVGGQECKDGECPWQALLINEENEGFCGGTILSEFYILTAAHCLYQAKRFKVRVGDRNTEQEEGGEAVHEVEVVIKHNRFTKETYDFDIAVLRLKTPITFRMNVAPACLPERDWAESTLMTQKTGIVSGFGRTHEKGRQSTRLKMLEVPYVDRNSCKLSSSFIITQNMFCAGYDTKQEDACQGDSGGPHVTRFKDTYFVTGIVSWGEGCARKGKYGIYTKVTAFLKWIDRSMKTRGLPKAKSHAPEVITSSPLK
Chain of Serine protease 1 (P07477 whole entry): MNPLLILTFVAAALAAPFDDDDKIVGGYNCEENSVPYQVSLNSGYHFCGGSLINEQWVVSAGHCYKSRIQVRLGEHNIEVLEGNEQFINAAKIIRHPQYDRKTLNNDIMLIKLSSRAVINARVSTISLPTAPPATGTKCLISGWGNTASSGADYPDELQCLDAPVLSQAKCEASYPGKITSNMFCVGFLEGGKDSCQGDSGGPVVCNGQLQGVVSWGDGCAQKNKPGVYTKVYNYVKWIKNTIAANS

For the compound `O=C1CN(S(=O)(=O)c2cc3ccc(Cl)nc3s2)CCN1Cc1cc2c[nH]ccc-2n1`, the affinity on Coagulation factor X, expressed as Ki, was 4 nM. In other words, the single-digit nanomolar range.

At Coagulation factor X, `O=C1CN(S(=O)(=O)c2cc3ccc(Br)cc3s2)CCN1Cc1cc2c[nH]ccc-2n1` gave a Ki of 3 nM. The Ki values of the last two compounds are within 1.5-fold of each other.

Compound `O=C1CN(S(=O)(=O)c2sc3ccccc3c2Cl)CCN1Cc1cc2c[nH]ccc-2n1` returned an inhibition constant Ki on Coagulation factor X of more than 1200 nM.

As to `O=C1CN(S(=O)(=O)c2cc3ccc(Cl)cc3s2)CCN1Cc1cc2cnccc2n1CCO`, in [1], the Cmax turned out to be 783 nM. Besides, the half-life in [2] came to 139 min. Also, the bioavailability in data set [3] was 11%.

For `O=C1CN(S(=O)(=O)c2cc3ccc(Cl)cc3s2)CCN1Cc1nc2cc[nH]cc-2n1`, the figures for the Ki on Prothrombin, at Coagulation factor X and at Serine protease 1 were more than 3900 nM, more than 1200 nM and more than 2900 nM, respectively. In data set [4], this compound yielded a pKa of 6.1.

Turning to `Nc1[nH]ccc2nc(CN3CCN(S(=O)(=O)c4cc5ccc(Cl)cc5s4)CC3=O)cc1-2`, the Ki on Prothrombin is more than 3900 nM; on Serine protease 1, more than 2900 nM. Moreover, in [4], the pKa turned out to be 9.3.

For `O=C1CN(S(=O)(=O)c2cc3ccc(Cl)cc3s2)CCN1Cc1cc2cnccc2o1`, the inhibition constant (Ki) at Prothrombin was more than 3900 nM; at Coagulation factor X, 1220 nM; at Serine protease 1, more than 2900 nM. Also, the pKa in data set [4] amounted to 5.8.

Take `O=C1CN(S(=O)(=O)c2cc3ccc(Cl)cc3s2)CCN1Cc1cc2c[n+]([O-])ccc2[nH]1`: the Ki at Prothrombin was more than 3900 nM; on Coagulation factor X, 38 nM; at Serine protease 1 it was more than 2900 nM.

In the case of `COc1cc(/C=C/S(=O)(=O)N2CCN(Cc3cc4c[nH]ccc-4n3)C(=O)C2)sc1Cl`, the inhibition constant Ki at Coagulation factor X is more than 1200 nM.

As for `O=C1CN(S(=O)(=O)c2cc3ccc(Cl)cc3s2)CCN1Cc1cc2[nH]cccc-2n1`, the Ki at Prothrombin was more than 3900 nM; at Coagulation factor X, more than 1200 nM; at Serine protease 1, more than 2900 nM. In data set [4], the pKa came out at 6.9.

As for `O=C1CN(S(=O)(=O)/C=C/c2ccc(Cl)cc2)CCN1Cc1cc2c[nH]ccc-2n1`, the Ki at Coagulation factor X is 48 nM.

The compound `O=C1CN(S(=O)(=O)CCc2ccc(Cl)s2)CCN1Cc1cc2c[nH]ccc-2n1` yielded a Ki on Coagulation factor X of 128 nM. Compared with the last compound, the Ki is about 2.7-fold higher.

On to `O=C1CN(S(=O)(=O)c2cc3ccc(Cl)cc3s2)CCN1Cc1cc2cc[nH]cc-2n1`, for which the inhibition constant Ki is 3900 nM at Prothrombin, 45 nM on Coagulation factor X and more than 2900 nM at Serine protease 1. In addition, in data set [4], the pKa worked out at 8.

As to `O=C(O)Cn1c(CN2CCN(S(=O)(=O)c3cc4ccc(Cl)cc4s3)CC2=O)cc2cnccc21`, the inhibitory constant (Ki) at Prothrombin is more than 3900 nM; at Coagulation factor X, 154 nM; on Serine protease 1, more than 2900 nM.

In the data set with Caco-2, `O=C1CN(S(=O)(=O)c2cc3ccc(Cl)cc3s2)CCN1Cc1cc2c[nH]ccc-2n1` returned an Absorption of 6%. For the same compound, the results for the Concentration in the data set filed under Homo sapiens and in the data set listed under Canis familiaris were 2 µM and 5 µM, respectively. For the same compound, the Ki on Prothrombin was 2900 nM; at Serine protease 1, more than 2900 nM. Further, the highest level in data set [1] (Cmax) was 658 nM. This compound showed a half-life in data set [2] of 36 min. In [3], this compound came in with a bioavailability of 99%. Besides, the pKa in data set [5] worked out at 8.3.

In turn, `O=C1CN(S(=O)(=O)c2cc3ccccc3s2)CCN1Cc1cc2c[nH]ccc-2n1` returned a Ki on Coagulation factor X of 959 nM.

Compound `COC(=O)Cn1c(CN2CCN(S(=O)(=O)c3cc4ccc(Cl)cc4s3)CC2=O)cc2cnccc21` registered an Absorption in the data set with Caco-2 of 47.6%. For the same compound, the Ki on Prothrombin was more than 3900 nM; on Coagulation factor X, 18 nM; on Serine protease 1, more than 2900 nM.

In turn, `O=C1CN(S(=O)(=O)c2cc3ncc(Cl)cc3s2)CCN1Cc1cc2c[nH]ccc-2n1` displayed a Ki on Coagulation factor X of 1200 nM.

On to `NC(=O)Cn1c(CN2CCN(S(=O)(=O)c3cc4ccc(Cl)cc4s3)CC2=O)cc2cnccc21`, for which the Absorption with Caco-2 amounted to 7%. The Ki was more than 3900 nM on Prothrombin, 8 nM at Coagulation factor X and more than 2900 nM at Serine protease 1.

Compound `O=C1CN(S(=O)(=O)c2ccc(-c3ccc(Cl)s3)s2)CCN1Cc1cc2c[nH]ccc-2n1` showed a Ki on Coagulation factor X of 23 nM.

With `O=C1CN(S(=O)(=O)/C=C/c2ccc(Cl)s2)CCN1Cc1cc2c[nH]ccc-2n1`, in [6], the highest level (Cmax) was 1640 nM. Further, the Concentration in the data set listed under Homo sapiens turned out to be 0.59 µM; in the data set listed under Canis familiaris, 2.2 µM. In data set [7], the bioavailability came to 97%. Moreover, the half-life in data set [8] is 52 min.

In the data set on Caco-2, `Cn1c(CN2CCN(S(=O)(=O)c3cc4ccc(Cl)cc4s3)CC2=O)cc2cnccc21` returned an Absorption of 3%. The Ki on Prothrombin is more than 3900 nM; at Coagulation factor X, 3 nM; at Serine protease 1, more than 2900 nM.

With `O=C1CN(S(=O)(=O)c2cc3ccc(Cl)cc3s2)CCN1Cc1cc2c(O)[nH]ccc-2n1`, the Ki is more than 3900 nM on Prothrombin, more than 1200 nM on Coagulation factor X and more than 2900 nM at Serine protease 1.

On to `O=C1CN(S(=O)(=O)c2ccc(-c3ccc(Cl)cc3)cc2)CCN1Cc1cc2c[nH]ccc-2n1`, for which the Ki on Coagulation factor X was more than 1200 nM.

Compound `O=C1CN(S(=O)(=O)c2cc3ncccc3s2)CCN1Cc1cc2c[nH]ccc-2n1` yielded a Ki on Coagulation factor X of more than 1200 nM.

Compound `O=C1CN(S(=O)(=O)c2cc3cccnc3s2)CCN1Cc1cc2c[nH]ccc-2n1` displayed a Ki at Coagulation factor X of more than 1200 nM.
